The results in this text go back to patent US20230159436A1, “APPLICATIONS OF AMIDE ANALOGS OF TRITERPENES IN CURES OF CANCER AND OTHER DISEASES” (Pacific Arrow Limited, priority 2021, published 2023).

In the data set the test system is U2OS, H460, HTB-9, ES2, HCT116, Capan, OVCAR3, DU145, SK-Mel-5, KB, A498, MCF-7, HepG2, T98G, K562, HeLa. In words: MTT Cytotoxic Assay of reaction products and isolated compounds. Type of data set: cell-based. The text has this: The peaks, fractions and compounds are selected according to the activities of times studies and the changes of peaks. Selecting the HPLC fractions for isolation is according to the cytotoxic activity of the reaction product obtained at a specific time. The compounds having strong to weak activities are selected and isolated. Selecting the HPLC fractions for isolation may be according to the cytotoxic activity of times studies and the change of peaks. The anti cancer activities are the MTT studies of bone (U2OS), lung (H460), bladder (HTB-9), ovary (ES2), colon (HCT116), pancreas (Capan), ovary (OVCAR3), prostate (DU145), skin (SK-Mel-5), mouth (KB), kidney (A498), breast (MCF-7), liver (HepG2), brain (T98G), luekemia (K562), cervix (HeLa).
Esterification, amidation, amination, or sulfonamidation of compound (A), (B), (C), (D1), (D2), (E), (F), (G), (H1), (H2), E4A, E4A2Y, E4D, E4D1, (P1), P(2), terpene, isoprene, triterpenes, hydroxylated triterpenes, with acyl halide, wherein the halide comprise chloride, bromide, fluoride and iodide, wherein the acyl halide comprise acyl chloride, wherein acyl chloride comprise tigloyl chloride, angeloyl chloride, acetyl chloride, crotonoyl chloride, 3,3-dimethylartyloyl chloride, senecioyl chloride, cinnamoyl chloride, pentenoyl chloride, hexanoyl chloride, benzoyl chloride, ethylbutyryl chloride, propionyl chloride, 2-propenoyl chloride, isobutyryl chloride, butyryl chloride, (2E)-2-pentenoyl chloride, 4-Pentenoyl chloride, 5-hexenoyl chloride, heptanoyl chloride, octanoyl chloride, nonanoyl chloride, decanoyl chloride, Lauroyl chloride, myristoyl chloride, oleoyl chloride. The compounds vary in composition when the time or temperature of the reaction is changed. The peaks, fractions and compounds are selected according to the activities of times studies and the changes of peaks. The compounds having strong to weak activities are selected and isolated. The anti cancer activities (Cytotoxic Assay) are the MTT studies of bone (U2OS), lung (H460), bladder (HTB-9), ovary (ES2), colon (HCT116), pancreas (Capan), ovary (OVCAR3), prostate (DU145), skin (SK-Mel-5), mouth (KB), kidney (A498), breast (MCF-7), liver (HepG2), brain (T98G), luekemia (K562), cervix (HeLa). The active esterification, amidation, amination, or sulfonamidation products are purified with HPLC. The reaction product of mixtures and individual compounds are tested with MTT Cytotoxic Assay. Details of method are in Experiment 3 of the present application. A second esterification of compound can be selected from the above experiment results to produce new active compounds. A partial esterification compound is selected from the above experiments to perform a second or repeated with a third esterification with different acyl chloride in order to produce new active compounds with the experiments in the present application. The active compounds of this invention are triterpenes in form of amine, sulfonamides, amide, and urea analogs, providing extremely stable activity in solution. They prolong the activities and duration of drug in a subject.
Cells. HTB-9 (bladder), HeLa-S3 (cervix), DU145 (prostate), H460 (lung), MCF-7 (breast), K562 (leukemia), HCT116 (colon), HepG2 (liver), U2OS (bone), T98G (brain), SK-MEL-5 (Skin) and OVCAR 3, ES2 (ovary), Pancreas (Capan), Mouth (KB), Kidney (A498).
MTT Assay. The procedure for MTT assay followed the method described by Carmichael et al. (1987) with modifications. The cells were seeded into a 96-well plate at for 24 hours before drug-treatment. The cells were then exposed to the drugs for 48, 72, or 96 hours. After the drug-treatment, MTT (0.5 mg/mL) was added to cultures and incubated for an hour. The formazan (product of the reduction of tetrazolium by viable cells) formed and was dissolved with DMSO and the O.D. at 490 nm, and was measured by an ELISA reader. The MTT level of the cells before drug-treatment was also measured (T0). […]

Regarding `CCC(=O)NCC1(C)C(N)CCC2(C)C1CCC1(C)C2CC=C2C3CC(C)(C)C(NC(=O)CC)C(N)C3(CN)C(N)CC21C` (stereo not shown) [LL3], the Cytotoxicity activity result is on record as “moderate”.

On to `CCC(=O)NCC1(C)C(N)CCC2(C)C1CCC1(C)C2CC=C2C3CC(C)(C)C(NC(=O)CC)C(N)C3(CNC(=O)CC)C(N)CC21C` (stereo not shown) [LL4], for which the Cytotoxicity activity result is reported as “weak”.

Consider `C=CC(=O)NCC1(C)C(N)CCC2(C)C1CCC1(C)C2CC=C2C3CC(C)(C)C(N)C(N)C3(CNC(=O)C=C)C(N)CC21C` (stereo not shown) [MM1], for which the Cytotoxicity activity entry is given as “moderate”.

As for `C=CC(=O)NCC1(C)C(O)CCC2(C)C1CCC1(C)C2CC=C2C3CC(C)(C)C(O)C(O)C3(CNC(=O)C=C)C(O)CC21C` (stereo not shown) [MM2], the Cytotoxicity activity entry was “strong”.

Regarding `C=CC(=O)NCC1(C)C(N)CCC2(C)C1CCC1(C)C2CC=C2C3CC(C)(C)C(NC(=O)C=C)C(N)C3(CN)C(N)CC21C` (stereo not shown) [MM3], the Cytotoxicity activity result was “moderate”.

Take `C=CC(=O)NCC1(C)C(N)CCC2(C)C1CCC1(C)C2CC=C2C3CC(C)(C)C(NC(=O)C=C)C(N)C3(CNC(=O)C=C)C(N)CC21C` (stereo not shown) [MM4]: the Cytotoxicity activity result is listed as “weak”.

As to `CC(C)C(=O)NCC1(C)C(N)CCC2(C)C1CCC1(C)C2CC=C2C3CC(C)(C)C(N)C(N)C3(CNC(=O)C(C)C)C(N)CC21C` (stereo not shown) [NN1], the Cytotoxicity activity result was “moderate”.

`CC(C)C(=O)NCC1(C)C(O)CCC2(C)C1CCC1(C)C2CC=C2C3CC(C)(C)C(O)C(O)C3(CNC(=O)C(C)C)C(O)CC21C` (stereo not shown) [NN2]: the Cytotoxicity activity entry is “strong”.

Consider `CC(C)C(=O)NCC1(C)C(N)CCC2(C)C1CCC1(C)C2CC=C2C3CC(C)(C)C(NC(=O)C(C)C)C(N)C3(CN)C(N)CC21C` (stereo not shown) [NN3], for which the Cytotoxicity activity entry is “moderate”.

Consider `CC(C)C(=O)NCC1(C)C(N)CCC2(C)C1CCC1(C)C2CC=C2C3CC(C)(C)C(NC(=O)C(C)C)C(N)C3(CNC(=O)C(C)C)C(N)CC21C` (stereo not shown) [NN4], for which the Cytotoxicity activity entry is on record as “weak”.

With `CCCC(=O)NCC1(C)C(N)CCC2(C)C1CCC1(C)C2CC=C2C3CC(C)(C)C(N)C(N)C3(CNC(=O)CCC)C(N)CC21C` (stereo not shown) [PP1], the Cytotoxicity activity result was “moderate”.

Consider `CCCC(=O)NCC1(C)C(O)CCC2(C)C1CCC1(C)C2CC=C2C3CC(C)(C)C(O)C(O)C3(CNC(=O)CCC)C(O)CC21C` (stereo not shown) [PP2], for which the Cytotoxicity activity result is recorded as “strong”.

With `CCCC(=O)NCC1(C)C(N)CCC2(C)C1CCC1(C)C2CC=C2C3CC(C)(C)C(NC(=O)CCC)C(N)C3(CN)C(N)CC21C` (stereo not shown) [PP3], the Cytotoxicity activity result is listed as “moderate”.

As for `CCCC(=O)NCC1(C)C(N)CCC2(C)C1CCC1(C)C2CC=C2C3CC(C)(C)C(NC(=O)CCC)C(N)C3(CNC(=O)CCC)C(N)CC21C` (stereo not shown) [PP4], the Cytotoxicity activity entry is reported as “weak”.

For the compound `CCC=CC(=O)NCC1(C)C(N)CCC2(C)C1CCC1(C)C2CC=C2C3CC(C)(C)C(N)C(N)C3(CNC(=O)C=CCC)C(N)CC21C` (stereo not shown) [QQ1], the Cytotoxicity activity entry is on record as “moderate”.

For `CCC=CC(=O)NCC1(C)C(O)CCC2(C)C1CCC1(C)C2CC=C2C3CC(C)(C)C(O)C(O)C3(CNC(=O)C=CCC)C(O)CC21C` (stereo not shown) [QQ2], the Cytotoxicity activity entry is “strong”.
